Experimental data taken from patent US20250221998A1, “DISCOVERY OF COVALENT EGFR INHIBITOR THROUGH CYSTEINE 775” (Dana-Farber Cancer Institute, Inc., priority 2022, published 2025).

How the values were obtained:
[1] = biological target: EGFR mutant L858R Ba/F3 cells (Homo sapiens, UniProt P00533, L858R, cells depend on it); assay: Ba/F3 cell proliferation (Cell Titer Glo), EGFR L858R; type: cell-based, murine; settings: 72 hours exposure, read-out: L858R BaF3 (μM), inhibitory activity against EGFR mutants
Sequence of EGFR mutant L858R Ba/F3 cells (P00533 whole entry L858R, the tested form may be a part): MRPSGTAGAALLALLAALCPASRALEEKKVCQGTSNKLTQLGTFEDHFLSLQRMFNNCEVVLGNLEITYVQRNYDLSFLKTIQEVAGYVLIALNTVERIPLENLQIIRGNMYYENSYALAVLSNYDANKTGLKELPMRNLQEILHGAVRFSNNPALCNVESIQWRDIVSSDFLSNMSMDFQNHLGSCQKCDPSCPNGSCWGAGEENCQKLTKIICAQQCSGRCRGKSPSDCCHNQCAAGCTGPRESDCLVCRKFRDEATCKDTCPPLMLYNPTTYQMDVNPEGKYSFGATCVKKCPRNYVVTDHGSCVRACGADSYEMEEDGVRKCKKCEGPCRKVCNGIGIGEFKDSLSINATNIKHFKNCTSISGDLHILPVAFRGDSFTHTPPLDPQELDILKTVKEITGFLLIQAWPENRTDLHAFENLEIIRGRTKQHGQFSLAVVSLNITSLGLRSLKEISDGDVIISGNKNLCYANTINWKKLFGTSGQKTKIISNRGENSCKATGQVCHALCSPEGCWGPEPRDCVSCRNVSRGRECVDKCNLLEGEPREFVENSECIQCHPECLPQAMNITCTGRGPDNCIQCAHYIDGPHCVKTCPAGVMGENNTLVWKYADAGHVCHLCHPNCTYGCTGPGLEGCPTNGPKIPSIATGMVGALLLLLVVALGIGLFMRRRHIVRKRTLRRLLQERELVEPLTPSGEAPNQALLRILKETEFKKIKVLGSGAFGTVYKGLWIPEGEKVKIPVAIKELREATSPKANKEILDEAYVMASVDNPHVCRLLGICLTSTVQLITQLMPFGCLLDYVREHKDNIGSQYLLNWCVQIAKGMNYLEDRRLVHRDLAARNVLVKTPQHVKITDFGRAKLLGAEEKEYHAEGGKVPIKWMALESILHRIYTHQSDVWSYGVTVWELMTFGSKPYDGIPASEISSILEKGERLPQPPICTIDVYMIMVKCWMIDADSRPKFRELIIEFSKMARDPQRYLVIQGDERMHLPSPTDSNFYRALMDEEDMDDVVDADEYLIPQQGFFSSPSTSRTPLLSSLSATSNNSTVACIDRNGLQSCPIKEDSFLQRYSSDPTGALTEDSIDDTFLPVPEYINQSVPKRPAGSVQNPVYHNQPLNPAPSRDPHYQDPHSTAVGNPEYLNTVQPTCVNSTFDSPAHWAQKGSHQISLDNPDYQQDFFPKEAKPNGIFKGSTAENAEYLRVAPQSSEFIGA
Text: (§1) The EGFR mutant L858R Ba/F3 cells have been previously described (Zhou, W., et al. Nature 462, 2009, 1070-1074). The EGFR C797S and C775S mutations were introduced via site directed mutagenesis using the Quick Change Site-Directed Mutagenesis kit into a vector containing EGFR L858R mutation (Stratagene; La Jolla, CA) according to the manufacturer's instructions. All constructs were confirmed by DNA sequencing. The constructs were then shuttled into the retroviral vector JP1540 by either using the Cre-recombination system (Agilent Technologies, Santa Clara, CA) or the In-fusion HD Cloning kit (Takara Bio USA, Inc.; Mountain view, CA). Ba/F3 cells were then infected with retrovirus per standard protocols, as described previously (Zhou, et al, Nature 2009). Stable clones were obtained by selection in puromycin (2 ug/ml). All BaF/3 mutant cells were maintained in RPMI 1640 (Cellgro; Mediatech Inc., Herndon, CA) supplemented with 10% FBS, 100 units/mL penicillin, 100 units/mL streptomycin.
(§2) Growth and inhibition of growth was assessed by the Cell Titer Glo assay (Promega, Madison, WI) and was performed according to the manufacturer's instructions. The Cell Titer Glo assay is a luminescence-based method used to determine the number of viable cells based on quantitation of the ATP present, which is directly proportional to the amount of metabolically active cells present. Ba/F3 cells of different EGFR genotypes were exposed to compounds for 72 hours and the number of cells used per experiment was determined empirically as has been previously established (Zhou, et al., Nature 2009). All experimental points were set up in triplicates in 384-well plates. […] The curves were fitted using a non-linear regression model with a sigmoidal dose response.
(§3) For inhibitory activity against EGFR mutants, the following designations are used: ≤0·25 μM=A, 0·25 μM˜0.5 μM=B, 0.5 μM˜2.5 μM=C, ≥2.5 μM=D.

[2] = biological target: EGFR L858R/C797S Ba/F3 cells (Homo sapiens, UniProt P00533, C797S/L858R, cells depend on it); assay: Ba/F3 cell proliferation (Cell Titer Glo), EGFR L858R/C797S; type: cell-based, murine; settings: 72 hours exposure, read-out: L858R/C797S (μM), inhibitory activity against EGFR mutants
Sequence of EGFR L858R/C797S Ba/F3 cells (P00533 whole entry C797S/L858R): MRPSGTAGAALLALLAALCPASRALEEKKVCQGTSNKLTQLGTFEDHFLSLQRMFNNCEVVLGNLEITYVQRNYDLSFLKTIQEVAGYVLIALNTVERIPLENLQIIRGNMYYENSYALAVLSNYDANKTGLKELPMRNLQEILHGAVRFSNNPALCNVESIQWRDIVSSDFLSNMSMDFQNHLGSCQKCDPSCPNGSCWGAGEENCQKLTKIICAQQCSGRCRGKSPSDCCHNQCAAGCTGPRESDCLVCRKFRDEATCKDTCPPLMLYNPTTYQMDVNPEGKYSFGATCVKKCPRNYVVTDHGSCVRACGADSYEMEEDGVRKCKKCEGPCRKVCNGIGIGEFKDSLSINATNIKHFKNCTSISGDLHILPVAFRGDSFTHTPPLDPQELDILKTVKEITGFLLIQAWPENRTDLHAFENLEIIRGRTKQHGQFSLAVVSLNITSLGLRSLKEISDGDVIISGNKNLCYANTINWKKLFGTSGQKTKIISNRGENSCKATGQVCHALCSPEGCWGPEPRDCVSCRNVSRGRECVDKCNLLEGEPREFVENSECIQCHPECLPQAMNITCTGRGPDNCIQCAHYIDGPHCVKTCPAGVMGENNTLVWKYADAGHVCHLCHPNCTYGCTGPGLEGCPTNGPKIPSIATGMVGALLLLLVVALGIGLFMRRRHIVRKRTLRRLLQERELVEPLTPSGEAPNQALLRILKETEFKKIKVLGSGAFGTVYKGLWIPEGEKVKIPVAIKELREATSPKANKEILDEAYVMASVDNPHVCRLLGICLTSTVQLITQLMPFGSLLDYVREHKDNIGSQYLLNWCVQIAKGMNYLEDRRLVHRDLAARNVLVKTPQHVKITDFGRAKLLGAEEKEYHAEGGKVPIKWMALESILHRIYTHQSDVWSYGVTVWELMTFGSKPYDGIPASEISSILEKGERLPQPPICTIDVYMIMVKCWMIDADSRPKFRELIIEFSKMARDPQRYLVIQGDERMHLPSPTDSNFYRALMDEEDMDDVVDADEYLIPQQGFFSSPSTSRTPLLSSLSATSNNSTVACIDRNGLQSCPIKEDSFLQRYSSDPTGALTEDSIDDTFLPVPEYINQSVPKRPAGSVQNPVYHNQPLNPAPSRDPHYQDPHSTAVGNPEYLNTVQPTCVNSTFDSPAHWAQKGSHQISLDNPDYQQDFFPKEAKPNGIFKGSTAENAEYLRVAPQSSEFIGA
Text: as §1, §2, §3

Structure (SMILES) | GI50 [1] [µM] | GI50 [2] [µM]
C=CC(=O)N1CC2CCN(c3cc4cnc(Nc5ccc(N6CCN(C)CC6)cc5)nc4n(C)c3=O)C[C@@H]2C1 (some centres unmarked) [Compound 023, 8-methyl-2-[4-(4-methylpiperazin-1-yl)anilino]-6-(2-prop-2-enoyl-3,3a,4,6,7,7a-hexahydro-1H-pyrrolo[3,4-c]pyridin-5-yl)pyrido[2,3-d]pyrimidin-7-one] | ≥ 2.5 | ≥ 2.5
C=CC(=O)N1CCN(c2cc3cnc(Nc4ccc(N5CCN(C)CC5)cc4)nc3n(C)c2=O)C2CC21 (centres unmarked) [Compound 024, 8-methyl-2-[4-(4-methylpiperazin-1-yl)anilino]-6-(5-prop-2-enoyl-2,5-diazabicyclo[4.1.0]heptan-2-yl)pyrido[2,3-d]pyrimidin-7-one] | ≥ 2.5 | ≥ 2.5
C=CC(=O)N1CCN(c2cc3cnc(Nc4ccc(N5CCN(C)CC5)cc4)nc3n(C)c2=O)C(=O)C1 [Compound 025, 8-methyl-2-[4-(4-methylpiperazin-1-yl)anilino]-6-(2-oxo-4-prop-2-enoyl-piperazin-1-yl)pyrido[2,3-d]pyrimidin-7-one] | ≥ 2.5 | ≥ 2.5
CCC(=O)N1CCN(c2cc3cnc(Nc4ccc(N5CCN(C)CC5)cc4)nc3n(C)c2=O)c2cccc(C)c21 [Compound 026] | 0.5 to 2.5 | 0.5 to 2.5
C=CC(=O)N1CCN(c2cc3cnc(Nc4ccc(N5CCC(O)CC5)cc4)nc3n(C)c2=O)c2cccc(C)c21 [Compound 027, 2-[4-(4-hydroxy-1-piperidyl)anilino]-8-methyl-6-(5-methyl-4-prop-2-enoyl-2,3-dihydroquinoxalin-1-yl)pyrido[2,3-d]pyrimidin-7-one] | ≤ 0.25 | ≤ 0.25
C=C(F)C(=O)N1CCN(c2cc3cnc(Nc4ccc(N5CCN(C)CC5)cc4)nc3n(C)c2=O)c2cccc(C)c21 [Compound 028] | ≤ 0.25 | 0.25 to 0.5
C=CC(=O)N1CCN(c2cc3cnc(Nc4ccc(N5CCN(C)CC5)cc4OC)nc3n(C)c2=O)c2cccc(C)c21 [Compound 029] | ≤ 0.25 | ≤ 0.25
C=CC(=O)N1CCN(c2cc3cnc(Nc4ccc(N5CCN(C)CC5)cn4)nc3n(C)c2=O)c2cccc(C)c21 [Compound 030] | ≤ 0.25 | ≤ 0.25
C=CC(=O)N1CCN(c2cc3cnc(Nc4ccc(N5CCN(C)CC5)nc4)nc3n(C)c2=O)c2cccc(C)c21 [Compound 031] | ≤ 0.25 | ≤ 0.25
C=CC(=O)N1CCN(c2cc3cnc(Nc4ccc(OCCN5CCCC5)cc4)nc3n(C)c2=O)c2cccc(C)c21 [Compound 032] | ≤ 0.25 | ≤ 0.25
C=CC(=O)N1CCN(c2cc3cnc(Nc4ccc(OCCN(C)C)cc4)nc3n(C)c2=O)c2cccc(C)c21 [Compound 033, 2-[4-[2-(dimethylamino)ethoxy]anilino]-8-methyl-6-(5-methyl-4-prop-2-enoyl-2,3-dihydroquinoxalin-1-yl)pyrido[2,3-d]pyrimidin-7-one] | ≤ 0.25 | ≤ 0.25
C=CC(=O)N1CCN(c2cc3cnc(Nc4ccc(CS(=O)(=O)NC)cc4)nc3n(C)c2=O)c2cccc(C)c21 [Compound 034, N-methyl-1-[4-[[8-methyl-6-(5-methyl-4-prop-2-enoyl-2,3-dihydroquinoxalin-1-yl)-7-oxo-pyrido[2,3-d]pyrimidin-2-yl]amino]phenyl]methanesulfonamide] | ≤ 0.25 | ≤ 0.25
C=CC(=O)N1CCN(c2cc3cnc(Nc4ccc5c(c4)CN(S(C)(=O)=O)CC5)nc3n(C)c2=O)c2cccc(C)c21 [Compound 035] | ≤ 0.25 | ≤ 0.25
C=CC(=O)N1CCN(c2cc3cnc(Nc4ccc(N5CCN(C)CC5)cc4F)nc3n(C)c2=O)c2cccc(C)c21 [Compound 036] | ≤ 0.25 | ≤ 0.25
C=CC(=O)N1CCN(c2cc3cnc(Nc4cnn(CCN(C)C)c4)nc3n(C)c2=O)c2cccc(C)c21 [Compound 037, 2-[[1-[2-(dimethylamino)ethyl]pyrazol-4-yl]amino]-8-methyl-6-(5-methyl-4-prop-2-enoyl-2,3-dihydroquinoxalin-1-yl)pyrido[2,3-d]pyrimidin-7-one] | ≤ 0.25 | ≤ 0.25
C=CC(=O)N1CCN(c2cc3cnc(Nc4cnn(CCO)c4)nc3n(C)c2=O)c2cccc(C)c21 [Compound 038] | ≤ 0.25 | ≤ 0.25

Structure (SMILES) | GI50 [1] [µM] | GI50 [2] [µM]
C=CC(=O)N1CCN(c2cc3cnc(Nc4cnn(C5CCN(C)CC5)c4)nc3n(C)c2=O)c2cccc(C)c21 [Compound 039, 8-methyl-2-[[1-(1-methyl-4-piperidyl)pyrazol-4-yl]amino]-6-(5-methyl-4-prop-2-enoyl-2,3-dihydroquinoxalin-1-yl)pyrido[2,3-d]pyrimidin-7-one] | ≤ 0.25 | ≤ 0.25
C=CC(=O)N1CCN(c2cc3cnc(Nc4ccc(N5CCN(C)CC5)c(F)c4)nc3n(C)c2=O)c2cccc(C)c21 [Compound 040] | ≤ 0.25 | ≤ 0.25
C=CC(=O)N1CCN(c2cc3cnc(Nc4cnn(CCS(C)(=O)=O)c4)nc3n(C)c2=O)c2cccc(C)c21 [Compound 041] | ≤ 0.25 | 0.25 to 0.5
C=CC(=O)N1CCN(c2cc3cnc(Nc4ccc(OCCN(C)C)cc4)nc3n(C3CC(O)C3)c2=O)c2cccc(C)c21 (centres unmarked) [Compound 042, 2-[4-[2-(dimethylamino)ethoxy]anilino]-8-(3-hydroxycyclobutyl)-6-(5-methyl-4-prop-2-enoyl-2,3-dihydroquinoxalin-1-yl)pyrido[2,3-d]pyrimidin-7-one] | ≤ 0.25 | ≤ 0.25
C=CC(=O)N1CCN(c2cc3cnc(Nc4ccc(OCCN(C)C)cc4)nc3n([C@H]3C[C@@H](O)C3)c2=O)c2cccc(C)c21 [Compound 043] | ≤ 0.25 | ≤ 0.25
C=CC(=O)N1CCN(c2cc3cnc(Nc4ccc(OCCN(C)C)cc4)nc3n([C@H]3C[C@H](O)C3)c2=O)c2cccc(C)c21 [Compound 044] | ≤ 0.25 | ≤ 0.25
C=CC(=O)N1CCN(c2cc3cnc(Nc4cccc(N5CCS(=O)(=O)CC5)c4)nc3n(C)c2=O)c2cccc(C)c21 [Compound 045] | ≤ 0.25 | ≤ 0.25
C=CC(=O)N1CCN(c2cc3cnc(Nc4ccc(N5CCN(C)CC5)cc4)nc3n(C3CC(O)C3)c2=O)c2cccc(C)c21 (centres unmarked) [Compound 046, 8-(3-hydroxycyclobutyl)-2-[4-(4-methylpiperazin-1-yl)anilino]-6-(5-methyl-4-prop-2-enoyl-2,3-dihydroquinoxalin-1-yl)pyrido[2,3-d]pyrimidin-7-one] | ≤ 0.25 | ≤ 0.25
C=CC(=O)N1CCN(c2cc3cnc(Nc4ccc(OCCN(C)C)cc4)nc3n(CCO)c2=O)c2cccc(C)c21 [Compound 047, 2-[4-[2-(dimethylamino)ethoxy]anilino]-8-(2-hydroxyethyl)-6-(5-methyl-4-prop-2-enoyl-2,3-dihydroquinoxalin-1-yl)pyrido[2,3-d]pyrimidin-7-one] | ≤ 0.25 | ≤ 0.25
C=CC(=O)N1CCN(c2cc3cnc(Nc4ccc(CC5CN(S(C)(=O)=O)C5)cc4)nc3n(C)c2=O)c2cccc(C)c21 [Compound 048, 8-methyl-6-(5-methyl-4-prop-2-enoyl-2,3-dihydroquinoxalin-1-yl)-2-[4-[(1-methylsulfonylazetidin-3-yl)methyl]anilino]pyrido[2,3-d]pyrimidin-7-one] | ≤ 0.25 | ≤ 0.25
C=CC(=O)N1CCN(c2cc3cnc(Nc4ccc(OC5CN(S(C)(=O)=O)C5)cc4)nc3n(C)c2=O)c2cccc(C)c21 [Compound 049] | ≤ 0.25 | ≤ 0.25
C=CC(=O)N1CCN(c2cc3cnc(Nc4ccc(CN5CCN(C)CC5)cc4)nc3n(C)c2=O)c2cccc(C)c21 [Compound 050] | ≤ 0.25 | ≤ 0.25
C=CC(=O)N1CCN(c2cc3cnc(Nc4ccc(N5CCN(C)CC5)cc4)nc3n(C)c2=O)c2cccc(O)c21 [Compound 051, 6-(5-hydroxy-4-prop-2-enoyl-2,3-dihydroquinoxalin-1-yl)-8-methyl-2-[4-(4-methylpiperazin-1-yl)anilino]pyrido[2,3-d]pyrimidin-7-one] | ≤ 0.25 | ≤ 0.25
C=CC(=O)N1CCN(c2cc3cnc(Nc4ccc(N5CCN(C)CC5)cc4)nc3n(-c3cccnc3)c2=O)c2cccc(C)c21 [Compound 052, 2-[4-(4-methylpiperazin-1-yl)anilino]-6-(5-methyl-4-prop-2-enoyl-2,3-dihydroquinoxalin-1-yl)-8-(3-pyridyl)pyrido[2,3-d]pyrimidin-7-one] | ≤ 0.25 | ≤ 0.25
C=CC(=O)N1CCN(c2cc3cnc(Nc4ccc(CS(=O)(=O)NC)cc4)nc3n(C)c2=O)c2cccc(O)c21 [Compound 053] | ≤ 0.25 | 0.25 to 0.5
